# Reference: patent US5861405A, “S-substituted 1,3,7-trialkyl-xanthine derivatives” (priority 1994, dated 1999)
# Where two headings read alike, the source gives them in different places.
# Key:
# locomotor activity = conditions: cited from earlier work
# [1] = test system: locomotor activity in mice; assay: Locomotor activity in mice, open field (Digiscan activity monitor); format: in vivo, mouse; conditions: for locomotor stimulation, in words: mice
# Experimental: Adult male mice of the NIH (Swiss) strain weighing 25-30 g were housed in groups of 10 animals per cage with a light-dark cycle of 12:12 h. The animals were given free access to standard pellet food and water and were acclimatized to laboratory conditions for 24 h prior to testing. Each animal was used only once in the activity monitor.
# Locomotor activity of individual animals was studied in an open field using a Digiscan activity monitor (Omnitech Electronics Inc., Columbus, Ohio) equipped with an IBM-compatible computer. The computer-tabulated measurements represent multivariate locomotor analysis with specific measures, such as simultaneous measurements of ambulatory, rearing, stereotypical, and rotational behaviors. Data were collected in the morning, for three consecutive intervals of 10 minutes each, and analyzed separately and as a group. Statistical analysis was performed using the Student t test. […] Drugs were administered i.p. in a volume corresponding to 5 ml/kg body weight. Where applicable, the antagonist was injected 10 minutes before the agonist. ED50 values were determined using regression analysis on the InPlot software (GraphPAD, San Diego, Calif.).
# [2] = test system: rat brain A2a- vs. A1-receptors; conditions: cited from earlier work
# [3] = test system: locomotor activity in mice; conditions: postinjection (Baumgold et al.); cited from earlier work
# [4] = molecular target: T1, rat A1 cortical receptors (Rattus norvegicus, UniProt P25099); assay: Radioligand binding, [3H]N6-phenylisopropyladenosine ([3H]PIA), rat cortical A1 receptors
# T1 construct: Rat cerebral cortical membranes and striatal membranes were prepared; from tissue; host or cells: rat cerebral cortex membranes
# T1 sequence (P25099 1-326): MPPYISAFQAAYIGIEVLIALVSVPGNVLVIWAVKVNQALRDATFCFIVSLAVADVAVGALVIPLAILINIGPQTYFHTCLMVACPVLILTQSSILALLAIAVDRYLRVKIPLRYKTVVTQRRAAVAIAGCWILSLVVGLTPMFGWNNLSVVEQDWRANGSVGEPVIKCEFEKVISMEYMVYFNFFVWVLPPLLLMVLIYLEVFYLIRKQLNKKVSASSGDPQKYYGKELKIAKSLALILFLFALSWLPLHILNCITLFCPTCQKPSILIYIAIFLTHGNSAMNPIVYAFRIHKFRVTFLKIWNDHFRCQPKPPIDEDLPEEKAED
# Experimental: (§1) The 1,3,7-trialkyl-8-substituted xanthine compounds of the present invention were tested in a radioligand binding assay for affinity at adenosine receptors in rat brain membranes.
# The final concentration of DMSO in the assay medium was generally 2%.
# Membranes (~100 μg protein per tube) were incubated for 1.5 h at 37° C. in a total volume of 0.5 ml of 50 mM Tris hydrochloride, at pH 7.4. Test drugs were dissolved in DMSO and added in 10 μl aliquots, resulting in a final DMSO concentration of 2%. Bound and free radioligand were separated by addition of 3 ml of a buffer containing 50 mM Tris hydrochloride, pH 7.4, at 5° C., followed by vacuum filtration using a Brandel Cell Harvester (Brandel, Gaithersburg, Md.) and a Whatman GF/B glass fiber filter with additional washes totaling 9 ml of buffer. Non-specific binding was determined with 10 μM 2-chloroadenosine.
# (§2) At least six different concentrations spanning three orders of magnitude, adjusted appropriately for the IC50 of each compound, were used.
# Aqueous solubility = conditions: injection vehicle
# Experimental: To avoid precipitation associated with serial aqueous dilutions, the only point at which DMSO was added to aqueous medium was immediately prior to the incubation.
# [5] = molecular target: T2, A2a receptors, rat striatum (Rattus norvegicus, UniProt P30543); assay: biochemical
# [6] = molecular target: T3, A1 receptors, rabbit striatum (Oryctolagus cuniculus, UniProt P34970); assay: Competition binding vs [3H]PIA, rabbit striatal membranes
# T3 construct: Striatal tissue was isolated by dissection of rabbit, bovine, and rat brain; tissue Pel-Freeze Biologicals Co; host or cells: rabbit striatal membranes (frozen brain)
# [7] = molecular target: A2a receptors, bovine striatum (Bos taurus, UniProt E1BKU0); assay: biochemical
# [8] = molecular target: T4, rat striatal A2a receptors (Rattus norvegicus, UniProt P30543); assay: Radioligand binding, [3H]CGS 21680, rat striatal A2a receptors; design: Rat cerebral cortical membranes and striatal membranes were prepared; from tissue; host or cells: rat striatal membranes
# Experimental: as §1
# The stock solutions were diluted with DMSO to a concentration of ≥0.1 mM prior to adding to the aqueous medium. The final concentration of DMSO in the assay medium was generally 2%.
# Test drugs were dissolved in DMSO and added in 10 μl aliquots, resulting in a final DMSO concentration of 2%. Non-specific binding was defined using 20 μM 2-chloroadenosine. Filtration was carried out using a Brandel Cell Harvester, as above, using Tris HCl/MgCl2 as the washing buffer.
# as §2
# rabbit A2a receptors = rabbit A2a receptors (Oryctolagus cuniculus, UniProt G1SVQ2); assay: biochemical
# [9] = molecular target: T5, A1 receptors, bovine striatum (Bos taurus, UniProt P28190); assay: Competition binding vs [3H]PIA, bovine striatal membranes
# T5 construct: Striatal tissue was isolated by dissection of rabbit, bovine, and rat brain; tissue Pel-Freeze Biologicals Co; host or cells: bovine striatal membranes (frozen brain)
# [10] = test system: A1 receptors, rat striatal membranes; assay: Irreversible inhibition after preincubation and washing, [3H]PIA, rat striatal membranes; format: binding; conditions: preincubation with 20 μM ISC, 60 min
# Experimental: Striatal membranes were treated with inhibitor as follows.
# bovine A2a receptors = bovine A2a receptors (Bos taurus, UniProt E1BKU0); assay: biochemical
# [11] = molecular target: T2, A2a receptors, rat striatum; conditions: four species (rat, guinea pig, bovine, rabbit)
# [12] = molecular target: T4, rat striatal A2a receptors
# [13] = molecular target: T6, A1 receptors, guinea pig striatum (Cavia porcellus, UniProt P47745); assay: Competition binding vs [3H]PIA, guinea pig striatal membranes
# T6 construct: guinea pig, bovine, and rabbit striatal membranes; tissue Keystone Biologicals; host or cells: guinea pig striatal membranes (frozen brain)
# [14] = molecular target: A2a receptors, rabbit striatum (Oryctolagus cuniculus, UniProt G1SVQ2); assay: biochemical
# [15] = molecular target: T7, A1 receptors, rat striatum (Rattus norvegicus, UniProt P25099); assay: Competition binding vs [3H]PIA, rat striatal membranes
# T7 construct: Striatal tissue was isolated by dissection of rabbit, bovine, and rat brain; tissue Pel-Freeze Biologicals Co; host or cells: rat striatal membranes (frozen brain)
# T7 sequence (P25099 1-326): T1 sequence (P25099 1-326)
# [16] = molecular target: T4, rat striatal A2a receptors; assay: biochemical
# [17] = molecular target: A2 receptors, rat striatum; conditions: vs [3H]NECA in rat striatum; read-out: Ki (A2a), Shimada et al.; cited from earlier work
# [18] = molecular target: A1 receptors, guinea pig brain; conditions: vs [3H]CHA in guinea pig brain; read-out: Ki (A1), Shimada et al.; cited from earlier work
# A2 receptors, rat brain = conditions: read-out: Ki (A2a), Erickson et al.; cited from earlier work
# [19] = molecular target: T8, A2a receptor, human platelets (Homo sapiens, UniProt P29274); assay: Antagonism of NECA-elicited stimulation of adenylate cyclase, human platelets; format: biochemical
# T8 construct: PC12) cell membranes or in human platelets; from tissue; host or cells: human platelets
# [20] = molecular target: T2, A2a receptors, rat striatum; assay: Radioligand binding vs [3H]N-ethylcarboxamidoadenosine, rat striatum; design: Striatal tissue was isolated by dissection of rabbit, bovine, and rat brain; tissue Pel-Freeze Biologicals Co; host or cells: rat striatal membranes (frozen brain); conditions: Table VI; vs [3H]NECA; read-out: Inhibition of binding (Ki), rat striatum A2a
# [21] = molecular target: A1 receptor, rat adipocytes (Rattus norvegicus, UniProt P25099); assay: biochemical
# Experimental: KB values were calculated using the Schild equation from the ratio of EC50 values for agonist in the presence and absence of antagonist.
# [22] = molecular target: T9, A2a receptor, rat pheochromocytoma (PC12) cells (Rattus norvegicus, UniProt P30543); assay: biochemical; conditions: Table VI; read-out: Adenylate cyclase (KB), rat PC12 cells A2a
# T9 construct: via an A2a receptor in rat pheochromocytoma (PC12) cell membranes; endogenous in cells; host or cells: PC12 cells (rat pheochromocytoma)
# [23] = Table VI, vs [3H]PIA, read-out: Inhibition of binding (Ki), rat cortex A1
# [24] = Table I, vs [3H]PIA (1 nM), rat A1 receptors, read-out: Ki (A1)
# T4 sequence (P30543 whole entry): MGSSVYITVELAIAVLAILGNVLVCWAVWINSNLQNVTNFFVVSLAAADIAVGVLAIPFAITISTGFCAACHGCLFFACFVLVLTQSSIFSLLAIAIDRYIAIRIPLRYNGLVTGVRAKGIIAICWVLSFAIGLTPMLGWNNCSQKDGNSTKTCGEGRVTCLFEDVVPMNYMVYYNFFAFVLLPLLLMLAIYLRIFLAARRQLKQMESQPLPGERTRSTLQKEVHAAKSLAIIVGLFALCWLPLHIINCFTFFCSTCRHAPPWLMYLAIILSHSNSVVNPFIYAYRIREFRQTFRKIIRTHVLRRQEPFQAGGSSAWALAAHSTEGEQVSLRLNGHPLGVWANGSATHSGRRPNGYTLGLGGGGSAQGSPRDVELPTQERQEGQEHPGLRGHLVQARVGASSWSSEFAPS
# T2 sequence (P30543 whole entry): as above
# A2a receptors, rabbit striatum, sequence (G1SVQ2 1-409): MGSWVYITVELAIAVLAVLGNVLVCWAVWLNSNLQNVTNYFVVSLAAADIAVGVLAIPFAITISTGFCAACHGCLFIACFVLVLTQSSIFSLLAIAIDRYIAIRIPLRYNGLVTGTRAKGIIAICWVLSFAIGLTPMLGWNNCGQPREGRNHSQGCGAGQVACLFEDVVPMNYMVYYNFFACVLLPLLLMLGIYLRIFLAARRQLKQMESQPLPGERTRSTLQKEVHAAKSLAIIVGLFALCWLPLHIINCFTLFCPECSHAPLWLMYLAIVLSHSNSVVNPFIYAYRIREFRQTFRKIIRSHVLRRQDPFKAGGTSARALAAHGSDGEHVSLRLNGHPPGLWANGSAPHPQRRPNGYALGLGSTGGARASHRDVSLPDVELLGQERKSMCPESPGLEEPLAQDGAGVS
# T5 sequence (P28190 whole entry): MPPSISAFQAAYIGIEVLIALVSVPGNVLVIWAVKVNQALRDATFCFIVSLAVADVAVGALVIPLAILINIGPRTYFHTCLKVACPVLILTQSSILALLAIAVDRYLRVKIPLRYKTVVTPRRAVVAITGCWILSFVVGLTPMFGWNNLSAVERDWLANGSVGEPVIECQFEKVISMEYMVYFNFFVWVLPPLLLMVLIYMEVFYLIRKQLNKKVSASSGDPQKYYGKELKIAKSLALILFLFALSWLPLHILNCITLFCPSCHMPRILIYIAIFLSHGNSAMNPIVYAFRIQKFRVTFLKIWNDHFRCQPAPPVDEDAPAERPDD
# T9 sequence (P30543 whole entry): as the sequence (P30543 whole entry) above
# T6 sequence (P47745 whole entry): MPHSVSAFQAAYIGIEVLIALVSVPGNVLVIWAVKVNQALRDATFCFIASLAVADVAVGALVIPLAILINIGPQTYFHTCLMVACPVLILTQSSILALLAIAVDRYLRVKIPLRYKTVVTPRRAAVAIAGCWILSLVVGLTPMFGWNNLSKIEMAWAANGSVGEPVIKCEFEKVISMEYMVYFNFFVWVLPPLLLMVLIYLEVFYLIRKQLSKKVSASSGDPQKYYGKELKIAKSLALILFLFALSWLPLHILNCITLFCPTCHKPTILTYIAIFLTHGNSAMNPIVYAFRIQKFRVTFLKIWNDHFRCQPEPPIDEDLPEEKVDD
# bovine A2a receptors, sequence (E1BKU0 1-401): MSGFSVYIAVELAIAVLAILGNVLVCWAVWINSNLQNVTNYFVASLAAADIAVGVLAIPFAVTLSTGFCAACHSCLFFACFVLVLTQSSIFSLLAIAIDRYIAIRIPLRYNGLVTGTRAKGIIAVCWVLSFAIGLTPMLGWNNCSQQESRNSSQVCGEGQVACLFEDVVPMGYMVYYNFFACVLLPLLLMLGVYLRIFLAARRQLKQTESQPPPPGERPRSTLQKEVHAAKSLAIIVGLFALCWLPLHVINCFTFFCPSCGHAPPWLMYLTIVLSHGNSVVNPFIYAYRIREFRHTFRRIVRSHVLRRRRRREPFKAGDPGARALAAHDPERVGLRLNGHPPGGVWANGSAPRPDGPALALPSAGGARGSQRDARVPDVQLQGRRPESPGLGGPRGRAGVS
# A2a receptors, bovine striatum, sequence (E1BKU0 1-401): as above
# T8 sequence (P29274 whole entry): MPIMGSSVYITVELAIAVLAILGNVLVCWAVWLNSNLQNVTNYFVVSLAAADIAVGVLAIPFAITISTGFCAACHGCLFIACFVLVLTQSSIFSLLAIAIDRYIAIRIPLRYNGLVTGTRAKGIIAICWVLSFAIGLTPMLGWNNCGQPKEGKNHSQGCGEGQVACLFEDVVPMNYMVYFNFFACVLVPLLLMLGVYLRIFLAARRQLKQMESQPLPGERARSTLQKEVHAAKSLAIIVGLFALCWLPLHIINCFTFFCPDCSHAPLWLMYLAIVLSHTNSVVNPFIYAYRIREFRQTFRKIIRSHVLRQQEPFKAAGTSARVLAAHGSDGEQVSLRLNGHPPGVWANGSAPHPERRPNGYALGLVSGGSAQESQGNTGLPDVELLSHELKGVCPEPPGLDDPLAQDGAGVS
# rabbit A2a receptors, sequence (G1SVQ2 1-409): as the sequence (G1SVQ2 1-409) above
# T3 sequence (P34970 whole entry): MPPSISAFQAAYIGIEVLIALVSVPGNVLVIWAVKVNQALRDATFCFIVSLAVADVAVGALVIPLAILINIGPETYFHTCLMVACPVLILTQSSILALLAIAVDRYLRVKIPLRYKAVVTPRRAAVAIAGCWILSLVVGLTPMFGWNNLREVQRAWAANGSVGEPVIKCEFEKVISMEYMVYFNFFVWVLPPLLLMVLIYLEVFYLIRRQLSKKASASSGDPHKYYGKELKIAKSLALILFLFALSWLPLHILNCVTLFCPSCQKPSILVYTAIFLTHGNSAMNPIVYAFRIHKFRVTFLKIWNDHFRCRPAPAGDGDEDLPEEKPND
smiles,measurement,setting,value
"CCNC(=O)[C@H]1O[C@@H](n2cnc3c(N)nc(NCCc4ccc(CCC(=O)NCCN)cc4)nc32)[C@H](O)[C@@H]1O [APEC, 2-[(2-aminoethylamino)-carbonylethylphenylethylamino]-5'-N-ethylcarboxamidoadenosine, reference compound]",ED50 for locomotor depression,"locomotor activity; i.p., previously determined",0.016 mg/kg
same,total distance traveled,"[1]; APEC alone 16 μg/kg, n=13",2277±229 cm/30 min
same,ED50 for locomotor depression elicited by APEC,[1]; following 1 mg/kg CSC,0.19 mg/kg
"Nc1nc2ccc(Cl)cc2n2c(-c3ccccc3)nnc12 [CP66,713]",effect on A1 depression of locomotor activity,"locomotor activity; in vivo, same dose",no effect on A1 depression of locomotor activity
same,antagonism of A2 depression of locomotor activity,locomotor activity; in vivo,partial antagonism of A2 depression of locomotor activity
same,selectivity A2a vs. A1,[2],12 fold
"Cn1c(=O)c2[nH]c(C3CCCC3)nc2n(C)c1=O [CPT, 8-cyclopentyltheophylline, reference compound]",time until stimulatory effect disappears,[3],≤ 20 min
same,"locomotor stimulation, in words",[1],"moderate, but transient, locomotor stimulation"
same,Behavioral stimulation,"[1]; typical dose 10 (mg/kg, i.p.)",++
same,Ki,[4]; [23],24 nM
"Cn1c(=O)c2c(nc(/C=C/c3cccc(Cl)c3)n2C)n(C)c1=O [Compound 28a, 1,3,7-trimethyl-8-(3-chlorostyryl) xanthine]",increase in clockwise and anti-clockwise rotations,[1],30-60%
same,effect on locomotor activity of concurrent administration,[1]; APEC 16 μg/kg with CSC 5 mg/kg,no effect on the locomotor activity
same,reversal of APEC-elicited locomotor depression,"[1]; CSC 1 mg/kg i.p., APEC 16 μg/kg",nearly completely reverse the locomotor depression
same,total distance traveled,"[1]; CSC 1.0 mg/kg with CPX […], n=9",4861±243 cm/30 min
same,stimulation of locomotor activity over CSC alone,"[1]; CSC 1.0 mg/kg with CPX […], p<0.001",37%
same,total distance traveled,"[1]; CSC 5 mg/kg alone, n=13",4223±496 cm/30 min
same,increase in locomotor activity versus APEC alone,[1]; CSC 5 mg/kg with APEC 16 μg/kg,73%
same,total distance traveled,"[1]; CSC 5 mg/kg with APEC 16 μg/kg, n=14",3949±284 cm/30 min
same,total distance traveled,"[1]; CSC 5 mg/kg with CHA, n=8",2029±250 cm/30 min
same,locomotor stimulation over vehicle control,"[1]; CSC 5 mg/kg, 30 min",22%
same,effect on locomotor depression elicited by CHA,"[1]; CSC 5 mg/kg, CHA 100 μg/kg i.p.",no effect on locomotor depression
same,increase in locomotor activity versus control,"[1]; CSC 5 mg/kg, last 10 minutes of 30 min",56%
same,total distance traveled,"[1]; CSC alone 1 mg/kg i.p., n=19",3550±230 cm/30 min
same,increase in average distance per move,[1]; CSC with CPX,approximately 30%
same,"locomotor stimulation, in words",[1],no significant effect on locomotor activity
same,Behavioral stimulation,"[1]; typical dose 5 (mg/kg, i.p.)",+
same,solubility,Aqueous solubility,< 1000 µg/mL
"Cn1c(=O)c2c(nc(/C=C/c3cccc(N=C=S)c3)n2C)n(C)c1=O [Compound 28e, 1,3,7-trimethyl-8-(3-isothiocyanatostyryl)xanthine]",IC50,[5],146 nM
same,Ki,[5],111 nM
same,IC50,[6],75600 nM
same,IC50,[7],516 ± 64 nM
same,Ki,[8]; Ki (A2a),111 ± 1 nM
same,EC50,rabbit A2a receptors,10000 nM
same,IC50,[9],63400 nM
same,loss of [3H]PIA binding,[10],12±2.9%
same,EC50,bovine A2a receptors,8000 nM
same,Hill coefficients for displacement of [3H]CGS 21680,[11],~1
same,time for inhibition of 50% of final value at 2 h,"[12]; 2 μM ISC, 25° C.",Approximately 3 min
same,regeneration of A2a-receptor binding,[12]; IBMX 100 μM overnight on ISC-treated membranes,did not regenerate any A2a -receptor binding
same,IC50,[13],51400 nM
same,IC50,[14],413 ± 135 nM
same,Ki,[14],347 ± 112 nM
same,Ki,[4],20300 nM
same,IC50,"[15]; IC50 (A1), rat, vs [3H]PIA (1 nM)",42600 nM
same,IC50,"[15]; IC50 at A1-receptors, rat striatum",43000 nM
same,Ki,"[15]; Ki value (A1), rat striatum, Table V footnote b",20300 nM
same,Ki,"[15]; Ki value at A1-receptors, rat striatum",20000 nM
same,IC50,[16],2700 nM
same,inhibition at 20 µM,"[16]; 1 h, read-out: loss of specific [3H]CGS 21680 binding, preincubation with 20 μM ISC, rat",~80%
same,inhibition at 2 µM,"[16]; 2 h, read-out: loss of specific [3H]CGS 21680 binding at 2 h, 2 μM ISC, 25° C.",~55%
COc1cc(/C=C/c2nc3c([nH]2)c(=O)n(C)c(=O)n3C)cc(OC)c1OC [Compound 44a],Ki,[17],71 nM
same,Ki,[18],> 100000 nM
same,Ki,[4]; [24],2280 nM
"COc1cc(/C=C/c2nc3c(c(=O)n(C)c(=O)n3C)n2C)cc(OC)c1OC [Compound 44b, 1,3,7-trimethyl-8-(3,4,5-trimethoxy)-styryl-xanthine]",Ki,[17],18 nM
same,Ki,[18],> 100000 nM
same,Ki,[4]; [24],9200 nM
C=CCn1c(=O)c2c(nc(/C=C/c3cc(OC)c(OC)c(OC)c3)n2C)n(CC=C)c1=O [Compound 46],Ki,[17],15 nM
same,Ki,[18],> 100000 nM
same,Ki,[4]; [24],1930 nM
CCCn1c(=O)c2[nH]c(/C=C/c3ccccc3)nc2n(CCC)c1=O [Compound 47],Ki,[17],26 nM
same,Ki,"[8]; Table I, vs [3H]CGS21680 (5 nM), rat striatal A2 receptors, read-out: Ki (A2a)",44 ± 19 nM
same,Ki,"A2 receptors, rat brain",85 nM
same,Ki,[18],1800 nM
CCCn1c(=O)c2[nH]c(/C=C/c3ccc(OC)c(OC)c3)nc2n(CCC)c1=O [Compound 52a],Ki,[17],6700 nM
same,Ki,[18],1700 nM
same,Ki,[4]; [24],71 ± 11 nM
"C#CCn1c(=O)c2c(ncn2C)n(C)c1=O [DMPX, 3,7-dimethyl-1-propargylxanthine]",Kb,[19],4000 nM
same,Behavioral stimulation,"[1]; typical dose 10 (mg/kg, i.p.)",+++
same,Ki,[20],16000 nM
same,Kb,[21],94000 nM
same,Kb,[22],9600 nM
same,Ki,[4]; [23],45000 nM
